Data as given in BigSolDB 2.1.

CC(=O)N1CCN(c2ccc(OC[C@@H]3CO[C@@](Cn4ccnc4)(c4ccc(Cl)cc4Cl)O3)cc2)CC1 (racemic)
solubility (mole fraction)
Conditions | 293.2 K | 298.2 K | 303.2 K | 308.2 K | 313.2 K
in n-propanol | 0.0056 | 0.00703 | 0.00948 | 0.0128 | 0.0175
in water | 3.8e-07 | 4.25e-07 | 4.46e-07 | 4.8e-07 | 5.11e-07
